pIC50: −log10 of the molar value.
Experiments:
hepatocytes = experiment: Cellular uptake assay (GFAAS, Co normalised to protein); assay type: in vitro ADME, murine; details: intact hepatocytes
Description: Cellular uptake assay. Hepatocytes were treated with varying doses of CPACC for 30 minutes, cells were washed in Ca^2+ and Mg^2+ free DPBS, and cell pellets flash-frozen. Pellets were suspended in ice cold lysis buffer (0.1% Triton X-100 and 0.2% HNO3 in ultrapure water). The suspension was vortexed for 30 s and incubated on ice for 45 min. The cell lysate was centrifuged, and the supernatant was transferred to a clean tube prior to analysis. The Co^3+ content of the lysate was determined using graphite furnace atomic absorption spectroscopy (GFAAS) and was normalized to the protein content of the sample, which was determined using the bicinchoninic acid (BCA) assay kit following manufacturer instructions (ThermoFisher). Results are reported as the average mass ratio of Co to protein (pg/μg) in each sample±SEM.

Bacterial CorA = Bacterial CorA (Salmonella typhimurium, UniProt P0A2R8); details: Kucharski et al., 2000, read-out: IC50 for CorA inhibition; cited from earlier work
Sequence of Bacterial CorA (P0A2R8 whole entry): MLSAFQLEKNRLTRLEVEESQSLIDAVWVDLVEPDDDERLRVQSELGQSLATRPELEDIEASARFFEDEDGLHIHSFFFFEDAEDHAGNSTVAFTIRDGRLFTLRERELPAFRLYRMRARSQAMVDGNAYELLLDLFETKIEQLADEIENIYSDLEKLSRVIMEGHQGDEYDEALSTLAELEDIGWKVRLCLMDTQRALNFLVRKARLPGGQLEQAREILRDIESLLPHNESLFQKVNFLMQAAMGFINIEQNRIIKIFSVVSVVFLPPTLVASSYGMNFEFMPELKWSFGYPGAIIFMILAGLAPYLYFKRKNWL

Mrs2 = target: T1, Mrs2 (Mus musculus, UniProt Q5NCE8); experiment: Mrs2 inhibition in intact hepatocytes loaded with Mag-Green-AM, confocal, L-lactate stimulation; assay type: cell-based, murine; details: 5 μM
T1 construct: endogenous in cells; host or cells: primary murine hepatocytes (C57BL/6J mice)
T1 sequence (Q5NCE8 54-434): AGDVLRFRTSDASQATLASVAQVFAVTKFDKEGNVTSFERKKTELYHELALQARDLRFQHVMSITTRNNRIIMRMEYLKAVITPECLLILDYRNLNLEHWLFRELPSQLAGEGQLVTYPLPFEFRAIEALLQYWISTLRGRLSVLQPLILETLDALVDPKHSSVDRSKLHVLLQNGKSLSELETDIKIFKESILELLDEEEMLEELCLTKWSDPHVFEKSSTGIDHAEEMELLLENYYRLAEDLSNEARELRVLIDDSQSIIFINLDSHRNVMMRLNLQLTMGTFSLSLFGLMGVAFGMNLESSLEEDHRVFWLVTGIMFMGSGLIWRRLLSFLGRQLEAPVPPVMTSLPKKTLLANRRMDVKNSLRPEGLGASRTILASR
Description: Bacterial CorA forms a pentameric complex that selectively drives Mg2+ uptake in an electrogenic manner. […] Mrs2 is the eukaryotic homologue of CorA and contains two transmembrane domains with a well-conserved F/Y-G-M-N motif; therefore, CorA blockers were tested to determine if they alter Mrs2-mediated mMg^2+ uptake (Moomaw and Maguire, 2008). Digitonin permeabilized hepatocytes were utilized to measure the inhibitory effect and determine its IC50. Permeabilized cells were treated with CPACC followed by a 1 mM bolus of MgCl2 (FIG. 10B). A 1 mM Mg^2+ bolus was added after baseline recording, and the extramitochondrial Mg^2+ clearance was used as a read-out for Mrs2-mediated mMg^2+ uptake using Mag-Green as a Mg^2+ indicator. […] We next investigated Mrs2 inhibition in intact hepatocytes loaded with Mag-Green-AM. […] Next CPACC was examined to determine if it had any effect on MCU-mediated mCa^2+ uptake in permeabilized cells. […] The availability of the compound to intact cells was measured using graphite furnace atomic absorption spectroscopy (GFAAS) and bicinchoninic acid in parallel. […] Encouraged by the potent inhibitory effect of CPACC and cellular permeability, we next measured the cytotoxicity of CPACC in cells. […]
Evaluation of dose dependent Mrs2 inhibition by confocal live cell imaging system. […] Data was quantified using Leica Application Suite X.

WT hepatocytes = experiment: Confocal BODIPY/TMRE imaging of lipid droplets and mitochondrial potential in hepatocytes; assay type: cell-based, murine; details: 50 μM, 48 hours
Description: CPACC treatment enhances adipose browning and lowers whole body weight. Given the potent mMg^2+ uptake inhibiting properties and low toxicity of CPACC, we hypothesized that CPACC could mimic Mrs2^−/− cellular phenotype. WT hepatocytes isolated from over 12 months old mice were treated with 50 μM CPACC for 48 hours. Control and CPACC treated hepatocytes were stained with BODIPY and TMRE for intracellular tracing using confocal imaging. […] Next it was determined if CPACC treatment affects the mitochondrial oxygen consumption rate. Freshly isolated WT hepatocytes were treated with 5-25 μM concentrations of CPACC for 16 hours before measurement of oxygen consumption rate. […] Since it was observed an enhancement of basal OCR in CPACC treated hepatocytes, the extracellular acidification rate was measured in control and CPACC treated hepatocytes and found it to be higher in the CPACC condition indicating higher glycolytic activity (FIG. 11G). […]
Confocal microscopic examination of cellular lipid localization and maintenance. […] Leica Application Suite X was used to quantify lipid-mitochondrial colocalization using line scan analysis followed by smooth curve fitting. […] The lipid droplet sizes and mitochondrial membrane potential were quantified using both Leica Application Suite X and ImageJ. All data was analyzed using GraphPad Prism v8.

**Q.** Which “cellular accumulation of the compound (intracellular Co)” value (hepatocytes) does the source give for `[NH2][Co]([NH2])([NH2])([NH2])([NH2])[Cl]` [CPACC, chloropentaammine cobalt (III) chloride] here?
**A.** accumulates in the cell in a dose-dependent manner

**Q.** What about the pIC50 (Bacterial CorA) of the same compound?
**A.** ~4.00

**Q.** And the “Mitochondrial Mg^2+ uptake following L-lactate stimulation” value (Mrs2)?
**A.** significantly inhibited

**Q.** What about the “effect on mitochondrial function (TMRE)” value (WT hepatocytes) of the same compound?
**A.** no negative effect

**Q.** And the lipid droplet size (WT hepatocytes; hepatocytes from over 12 months old mice)?
**A.** marked reduction of lipid droplet size

Source: US20240415878A1, “Compositions and Methods for Modulating Mitochondrial Function” (Board of Regents, The University of Texas System, priority 2021, published 2024)
